# Measured values as given in patent US8377900B2 (National Research Council of Canada, priority 2003, dated 2013).
# Legend:
# 293A cells = type: cell-based, Human; conditions: 25 μM, cell growth rate and CMV-GFP expression
# Experimental: At a concentration of 5 μM novobiocin, however, over 98% of the coumermycin-induced luciferase expression was suppressed (FIG. 5A).
# [1] = cited from earlier work
# [2] = test system: S92G-mutated chimeric λR-GyrB transactivator; type: cell-based, Human
# Source text: FIG. 5A. […] Results represent two independent experiments performed in triplicate.
# Results shown are the means for triplicate determinations and representative of 3 experiments.
# [3] = molecular target: T1, chimeric transactivator λR-GyrB-NFκB (UniProt P03034+P0AES6); assay: Coumermycin-induced reporter (Luc/GFP) expression, transient transfection of 293A cells with wild type transactivator; type: cell-based, Human; conditions: 5 nM, 40 hr
# T1 construct: the GyrB domain (codons 2-220 of bacterial DNA gyrase); expressed in transfected cells; host or cells: human embryonic kidney 293A cells, transient transfection with pGyrB plus reporter plasmid, or with pCUR
# Experimental: FIG. 2A. Either two plasmids pGFP and pGyrB (double plasmids, each 0.5 μg), or one plasmid pCUR (1.0 μg) containing the GFP gene (single plasmid), were transiently transfected into 293A cells.
# FIG. 2B. Either two plasmids pLuc and pGyrB (DP, each 0.2 μg), or one plasmid pCUR (0.4 μg) containing the Luc gene (SP), were transiently transfected into 293A cells, respectively. […] The results shown are the means for triplicate determinations and representative of 3 experiments. The transfection efficiencies were normalized by co-transfection of pRL-TK vector constitutively producing Renilla luciferase.
# Exponentially growing 293A cells were seeded at 8×10^5 in 60 mm dishes the day prior to transfection and co-transfected with 5 μg of XmnI linearized pLuc and 0.2 μg of pcDNA3.1 hygromycin using the SuperFect kit (Qiagen). Alternatively, the cells were transfected with PvuI linearized pCUR. Two days following transfection, the cells were replaced into 100 mm dishes, and selected with appropriate antibiotics for 2 weeks. Single clone was selected for further assay. […] Luc activity was determined using 20 μl of total cell lysate using the Dual-Luciferase Reporter Assay System (Promega). The reporter firefly luciferase activities were measured and normalized by the transfection efficiencies estimated by the activities of Renilla luciferase constitutively expressed from cotransfected pRL-TK. […]
# [4] = test system: S92G-mutated chimeric λR-GyrB transactivator; assay: Coumermycin-dependent luciferase activity in stable 293A clones (pCUR, S92G transactivator); type: cell-based, Human
# Experimental: FIG. 4B. […] Results represent two independent experiments performed in triplicate.
# Alternatively, the cells were transfected with PvuI linearized pCUR. Two days following transfection, the cells were replaced into 100 mm dishes, and selected with appropriate antibiotics for 2 weeks. Single clone was selected for further assay. […] After 40 hrs induction, cells were lysed in 100 μl lysis buffer (Promega) for 20 min. Luc activity was determined using 20 μl of total cell lysate using the Dual-Luciferase Reporter Assay System (Promega). The reporter firefly luciferase activities were measured and normalized by the transfection efficiencies estimated by the activities of Renilla luciferase constitutively expressed from cotransfected pRL-TK. For inducible expression of the Bax gene, wild-type K562 cells were transfected using electroporation with 5 μg DNA of the linearized pBax and pGyrB. Cell lines were selected with hygromycin and positive clones were screened in the induced and non-induced states using anti-Bax antibody visualized by Western blot.
# Cells were stably transfected with pCUR containing the Luc gene. […] Values are means of three independent luciferase determinations from three independently cell cultures.
# The kinetic characteristics of this inducible system were further examined in stable cell lines.
# K562-Bax cells = assay: Flow cytometric analysis of apoptosis (Annexin-V) in K562-Bax cells; type: cell-based, Human; conditions: 5 nM coumermycin, 36 hr; 6.7% without treatment
# Source text: (§1) It has been reported that high-level expression of Bax (Bcl2-associated X protein) elicits apoptosis in a variety of human cancer cells (17). In malignant hematopoietic cells, including k562, Bax overexpression leads to apoptosis of the transfected cells through cytochrome C release (18). To evaluate the tightness of gene expression regulated by the chimeric transactivator, the apoptotic Bax gene was cloned into the transgene-expression cassette from the two-plasmid induction system previously described. […] Stable clones harboring the both plasmids were isolated and characterized following induction.
# K562-Bax 65 cells = assay: Western blot of Bax expression and cytosolic cytochrome C in clone K562-Bax 65; type: cell-based, Human; conditions: 5 nM coumermycin, 36 hr
# Source text: as §1
compound,measurement,setting,value
CO[C@@H]1[C@@H](OC(N)=O)[C@@H](O)[C@H](Oc2ccc3c(O)c(NC(=O)c4ccc(O)c(CC=C(C)C)c4)c(=O)oc3c2C)OC1(C)C [novobiocin],cellular toxicity,293A cells,do not exert any detectable cellular toxicity
same,in vivo half-life,[1],6 h
same,serum half-life,"[1]; serum, in vivo",6 h
same,extent of switch-off of coumermycin-induced luciferase expression,[2]; 2.5 μM novobiocin added after 11 hr induction with 5 nM coumermycin,nearly completely switched off
same,suppression of coumermycin-induced luciferase expression,"[2]; 5 μM novobiocin with 5 nM coumermycin, 40 hr",over 98%
coumermycin,GFP expression,[3]; both plasmid systems,greatly induced
same,induction of luciferase activity,"[3]; wild type λR, double- and single-plasmid cassettes",around 50 fold
same,induction time at which appreciable luciferase activity was detected,"[4]; 5 nM coumermycin, clone S92G-5",5 h
same,induction time for maximal inducibility,"[4]; 5 nM coumermycin, clone S92G-5",24 h
same,higher doses causing reduced induction of gene expression,[4]; FIG. 4A,> 0.5 µM
same,concentration at which inducibility was decreased,"[4]; clone S92G-5, 40 hr",50 nM
same,concentration for maximal induction,"[4]; clone S92G-5, 40 hr",2.5 to 5 nM
same,lowest concentration giving apparent induction of luciferase expression,"[4]; clone S92G-5, 40 hr",approximately 0.5 ng/ml
same,lowest concentration giving appreciable/apparent induction of gene expression,"[4]; clone S92G-5, 40 hr, luciferase",0.5 nM
same,Luciferase Activity With Coum,"[4]; stable clone 5, coumermycin 5 nM","47,460 ± 447 Arbitrary Light Units/μg protein"
same,Activation factor,"[4]; stable clone 5, with vs without coumermycin 5 nM",5.1 × 10^3
same,Luciferase Activity With Coum,"[4]; stable clone 8, coumermycin 5 nM","52,408 ± 2,254 Arbitrary Light Units/μg protein"
same,Activation factor,"[4]; stable clone 8, with vs without coumermycin 5 nM",1.5 × 10^3
same,Luciferase Activity With Coum,"[4]; stable clone 10, coumermycin 5 nM","1,591 ± 100 Arbitrary Light Units/μg protein"
same,Activation factor,"[4]; stable clone 10, with vs without coumermycin 5 nM",3.2 × 10^3
same,Luciferase Activity With Coum,"[4]; stable clone 18, coumermycin 5 nM","7,446 ± 36 Arbitrary Light Units/μg protein"
same,Activation factor,"[4]; stable clone 18, with vs without coumermycin 5 nM",5.8 × 10^3
same,Luciferase Activity With Coum,"[4]; stable clone 23, coumermycin 5 nM","8,237 ± 204 Arbitrary Light Units/μg protein"
same,Activation factor,"[4]; stable clone 23, with vs without coumermycin 5 nM","over 10,000"
same,Activation factor,"[4]; stable clone 23, with vs without coumermycin 5 nM, listed as Coumermycin",1.4 × 10^4
same,Luciferase Activity With Coum,"[4]; stable clone 28, coumermycin 5 nM","12,292 ± 550 Arbitrary Light Units/μg protein"
same,Activation factor,"[4]; stable clone 28, with vs without coumermycin 5 nM",5.1 × 10^3
same,Luciferase Activity With Coum,"[4]; stable clone 34, coumermycin 5 nM","46,980 ± 1,300 Arbitrary Light Units/μg protein"
same,Activation factor,"[4]; stable clone 34, with vs without coumermycin 5 nM",5.8 × 10^3
same,Luciferase Activity With Coum,"[4]; stable clone 44, coumermycin 5 nM","30,151 ± 2020 Arbitrary Light Units/μg protein"
same,Activation factor,"[4]; stable clone 44, with vs without coumermycin 5 nM","over 10,000"
same,Activation factor,"[4]; stable clone 44, with vs without coumermycin 5 nM, listed as Coumermycin",1.3 × 10^4
same,Luciferase Activity With Coum,"[4]; stable clone 45, coumermycin 5 nM","1,909 ± 24 Arbitrary Light Units/μg protein"
same,Activation factor,"[4]; stable clone 45, with vs without coumermycin 5 nM",1.6 × 10^3
same,Luciferase Activity With Coum,"[4]; stable clone 47, coumermycin 5 nM","8,528 ± 43 Arbitrary Light Units/μg protein"
same,Activation factor,"[4]; stable clone 47, with vs without coumermycin 5 nM",2.1 × 10^3
same,fraction of apoptotic cells,K562-Bax cells,45.5%
same,Bax expression (Western blot),K562-Bax 65 cells,greatly induced
same,cytochrome c release from mitochondria (Western blot),K562-Bax 65 cells,released in substantial amounts
